From US20260176320A1, “MODULATORS OF G-PROTEIN COUPLED RECEPTORS” (priority 2018, published 2026)
Like-named read-outs stand apart in the source and are kept apart here.

Assays:
GLP-1R = GLP-1R (Homo sapiens, UniProt P43220); experiment: HitHunter cAMP assay (GLP-1R); assay type: cell-based; conditions: cAMP; for Emax: read-out: (Emax) GLP-1R
Summary of the method: (§1)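 cAMP accumulation read by luminescent HitHunter immunocompetition after 30 min room-temperature agonist stimulation. Agonists tested as 22-point twofold dilutions, in duplicate, on 10,000 cells/well in HBSS containing 625 μM IBMX, 10 mM HEPES and 0.2% BSA.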

GIP-R = target: T1, GIP-R (Homo sapiens, UniProt P48546); experiment: HitHunter cAMP assay (GIP-R); assay type: cell-based; conditions: cAMP; for Emax: read-out: (Emax) GIP-R
T1 sequence (P48546 22-466): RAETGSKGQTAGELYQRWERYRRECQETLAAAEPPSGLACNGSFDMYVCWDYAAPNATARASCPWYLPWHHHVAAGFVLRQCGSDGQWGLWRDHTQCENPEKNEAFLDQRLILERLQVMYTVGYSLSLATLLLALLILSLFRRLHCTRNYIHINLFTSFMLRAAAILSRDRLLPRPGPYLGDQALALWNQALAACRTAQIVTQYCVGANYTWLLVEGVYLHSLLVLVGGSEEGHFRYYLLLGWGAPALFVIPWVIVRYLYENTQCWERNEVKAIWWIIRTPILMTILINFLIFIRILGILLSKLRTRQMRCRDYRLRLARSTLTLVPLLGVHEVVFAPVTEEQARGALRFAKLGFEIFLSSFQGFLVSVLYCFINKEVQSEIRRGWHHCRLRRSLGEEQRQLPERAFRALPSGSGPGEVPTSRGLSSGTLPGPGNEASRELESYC
Summary of the method: as §1

[1] = Table 3, read-out: EC50 GLP-1R/nM
[2] = Table 3A, read-out: EC50 GLP-1R/nM
[3] = Table 3, read-out: EC50 GIP-R/nM
[4] = Table 3A, read-out: EC50 GIP-R/nM

Sequence of GLP-1R (P43220 24-463): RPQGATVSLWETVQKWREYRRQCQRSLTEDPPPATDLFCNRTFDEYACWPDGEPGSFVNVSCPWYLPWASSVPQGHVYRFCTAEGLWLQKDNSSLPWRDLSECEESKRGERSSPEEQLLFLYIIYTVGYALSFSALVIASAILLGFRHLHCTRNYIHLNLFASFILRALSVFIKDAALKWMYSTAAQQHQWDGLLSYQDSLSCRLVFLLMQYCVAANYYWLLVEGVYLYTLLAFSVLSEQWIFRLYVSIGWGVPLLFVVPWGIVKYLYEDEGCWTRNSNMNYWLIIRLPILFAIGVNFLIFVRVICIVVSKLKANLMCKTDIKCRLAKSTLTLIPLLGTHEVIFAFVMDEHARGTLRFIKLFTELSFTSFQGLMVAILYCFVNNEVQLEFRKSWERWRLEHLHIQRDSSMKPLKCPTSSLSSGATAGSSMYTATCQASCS

Question: Which Emax (GLP-1R; Table 3) does the source give for `CCCCCCCCCCCCCCCC(=O)N[C@@H](CCC(=O)NCCCC[C@H](NC(=O)[C@H](CO)NC(=O)[C@@H]1CCCN1C(=O)[C@@H]1CCCN1C(=O)[C@@H]1CCCN1C(=O)[C@H](C)NC(=O)CNC(=O)[C@H](CO)NC(=O)[C@H](CO)NC(=O)[C@@H]1CCCN1C(=O)CNC(=O)CNC(=O)[C@H](C)NC(=O)[C@H](CC(C)C)NC(=O)[C@H](CC(C)C)NC(=O)[C@H](Cc1c[nH]c2ccccc12)NC(=O)[C@H](CC(N)=O)NC(=O)[C@@H](NC(=O)[C@H](Cc1ccccc1)NC(=O)[C@H](CCC(=O)O)NC(=O)C(C)(C)NC(=O)[C@H](C)NC(=O)[C@H](C)NC(=O)[C@H](CCC(N)=O)NC(=O)[C@H](CCCCN)NC(=O)[C@H](CC(=O)O)NC(=O)[C@H](CC(C)C)NC(=O)[C@H](Cc1ccc(O)cc1)NC(=O)[C@@H](NC(=O)[C@H](CO)NC(=O)[C@H](Cc1ccc(O)cc1)NC(=O)[C@H](CC(=O)O)NC(=O)[C@H](CO)NC(=O)[C@@H](NC(=O)[C@H](Cc1ccccc1)NC(=O)[C@@H](NC(=O)CNC(=O)[C@H](CCC(=O)O)NC(=O)CSCC(=O)NCCN1C(=O)CNC1=O)[C@@H](C)O)[C@@H](C)O)[C@@H](C)CC)C(C)C)C(N)=O)C(=O)O` [Compound 84] here?
Answer: Its Emax is 107%.

Question: What about the EC50 (GLP-1R; [1]) of the same molecule?
Answer: The EC50 was 0.1 to 1 nM.

Question: And the Emax (GLP-1R; Table 3A)?
Answer: Its Emax is 107%.

Question: What about the EC50 (GLP-1R; [2]) of the same molecule?
Answer: Its EC50 is 0.1 to 1 nM.

Question: And the Emax (GIP-R; Table 3)?
Answer: Its Emax is 53%.

Question: What about the EC50 (GIP-R; [3]) of the same molecule?
Answer: The EC50 was 1 to 10 nM.

Question: And the Emax (GIP-R; Table 3A)?
Answer: The Emax was 53%.

Question: And the EC50 (GIP-R; [4])?
Answer: The EC50 was 1 to 10 nM.

Question: Which EC50 (GLP-1R; EC50 GLP-1R/nM, Table 3) does the source give for `CCCCCCCCCCCCCCCC(=O)N[C@@H](CCC(=O)NCCCC[C@H](NC(=O)[C@H](CO)NC(=O)[C@@H]1CCCN1C(=O)[C@@H]1CCCN1C(=O)[C@@H]1CCCN1C(=O)[C@H](C)NC(=O)CNC(=O)[C@H](CO)NC(=O)[C@H](CO)NC(=O)[C@@H]1CCCN1C(=O)CNC(=O)CNC(=O)[C@H](C)NC(=O)[C@H](CC(C)C)NC(=O)[C@H](CC(C)C)NC(=O)[C@H](Cc1c[nH]c2ccccc12)NC(=O)[C@H](CC(N)=O)NC(=O)[C@@H](NC(=O)[C@H](Cc1ccccc1)NC(=O)[C@H](CCC(=O)O)NC(=O)C(C)(C)NC(=O)[C@H](C)NC(=O)[C@H](C)NC(=O)[C@H](CCC(N)=O)NC(=O)[C@H](CCCCN)NC(=O)[C@H](CC(=O)O)NC(=O)[C@H](CC(C)C)NC(=O)[C@H](Cc1ccc(O)cc1)NC(=O)[C@@H](NC(=O)[C@H](CO)NC(=O)[C@H](Cc1ccc(O)cc1)NC(=O)[C@H](CC(=O)O)NC(=O)[C@H](CO)NC(=O)[C@@H](NC(=O)[C@H](Cc1ccccc1)NC(=O)[C@@H](NC(=O)CNC(=O)[C@H](CCC(=O)O)NC(=O)CSCC(=O)NCCN1C(=O)[C@H](C)C[C@H](C)C1=O)[C@@H](C)O)[C@@H](C)O)[C@@H](C)CC)C(C)C)C(N)=O)C(=O)O` [Compound 88] here?
Answer: Its EC50 is 1 to 10 nM.

Question: What about the EC50 (GLP-1R; EC50 GLP-1R/nM, Table 3A) of the same molecule?
Answer: The EC50 was 1 to 10 nM.

Question: What about the Emax (GLP-1R; Table 3) of the same molecule?
Answer: Its Emax is 108%.

Question: What about the Emax (GLP-1R; Table 3A) of the same molecule?
Answer: The Emax was 108%.

Question: What about the EC50 (GIP-R; EC50 GIP-R/nM, Table 3) of the same molecule?
Answer: The EC50 was 1 to 10 nM.

Question: What about the EC50 (GIP-R; EC50 GIP-R/nM, Table 3A) of the same molecule?
Answer: The EC50 was 1 to 10 nM.

Question: And the Emax (GIP-R; Table 3)?
Answer: The Emax was 102%.

Question: What about the Emax (GIP-R; Table 3A) of the same molecule?
Answer: The Emax was 102%.

Question: `CC[C@H](C)[C@H](NC(=O)[C@H](CO)NC(=O)[C@H](Cc1ccc(O)cc1)NC(=O)[C@H](CC(=O)O)NC(=O)[C@H](CO)NC(=O)[C@@H](NC(=O)[C@H](Cc1ccccc1)NC(=O)[C@@H](NC(=O)CNC(=O)[C@H](CCC(=O)O)NC(=O)CSCC(=O)NCCN1C(=O)CN(C)C1=O)[C@@H](C)O)[C@@H](C)O)C(=O)N[C@@H](Cc1ccc(O)cc1)C(=O)N[C@@H](CC(C)C)C(=O)N[C@@H](CC(=O)O)C(=O)N[C@@H](CCCCN)C(=O)N[C@@H](CCC(N)=O)C(=O)N[C@@H](C)C(=O)N[C@@H](C)C(=O)NC(C)(C)C(=O)N[C@@H](CCC(=O)O)C(=O)N[C@@H](Cc1ccccc1)C(=O)N[C@H](C(=O)N[C@@H](CC(N)=O)C(=O)N[C@@H](Cc1c[nH]c2ccccc12)C(=O)N[C@@H](CC(C)C)C(=O)N[C@@H](CC(C)C)C(=O)N[C@@H](C)C(=O)NCC(=O)NCC(=O)N1CCC[C@H]1C(=O)N[C@@H](CO)C(=O)N[C@@H](CO)C(=O)NCC(=O)N[C@@H](C)C(=O)N1CCC[C@H]1C(=O)N1CCC[C@H]1C(=O)N1CCC[C@H]1C(=O)N[C@@H](CO)C(=O)N[C@@H](CCCCN)C(N)=O)C(C)C` [Compound 112] was tested. Which Emax (GLP-1R; Table 3) did it give?
Answer: The Emax was 94%.

Question: What about the EC50 (GLP-1R; [1]) of the same molecule?
Answer: Its EC50 is 10 to 100 nM.

Question: And the Emax (GLP-1R; Table 3A)?
Answer: Its Emax is 94%.

Question: And the EC50 (GLP-1R; [2])?
Answer: Its EC50 is 10 to 100 nM.

Question: What about the EC50 (GIP-R; [3]) of the same molecule?
Answer: The EC50 was 10 to 100 nM.

Question: And the EC50 (GIP-R; [4])?
Answer: The EC50 was 10 to 100 nM.

Question: And the Emax at 1 µM (GIP-R; read-out: (Emax) GIP-R at 1 μM, Table 3)?
Answer: Its Emax at 1 µM is 26%.

Question: What about the Emax at 1 µM (GIP-R; read-out: (Emax) GIP-R at 1 μM, Table 3A) of the same molecule?
Answer: The Emax at 1 µM was 26%.
